In PubChem BioAssay AID179 (DTP/NCI, 2004):
Values joined by “and” are separate entries in the source; they are usually repeats but may differ in a detail not shown here. Equal entries are not always repeated. Active and inactive are the calls of the source.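 Rule for the calls: active = compounds giving half or more protection of infected cells from virus-caused growth loss, again on retest; inactive = the rest.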

Test system: CEM cells HIV-1 protection, formazan growth assay
Assay: NCI AIDS Antiviral Assay
Details: for IC50: measured here: growth of uninfected CEM cells
Summary of the method: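 CEM (human) cells, HIV-1 infected vs uninfected, 5-point dosing, formazan growth read-out. Retest threshold 50% protection.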

CC(CCCOC(c1ccccc1)(c1ccccc1)c1ccccc1)OC(=O)Nc1cc([N+](=O)[O-])cc([N+](=O)[O-])c1 (centres undefined)
EC50: > 12.9 µM
IC50: > 12.9 µM

N#Cc1cc2ccncc2c2ccccc12
EC50: > 33.1 µM
IC50: 24 µM

COc1ccccc1/C=C(\NC(=O)c1ccccc1)C(=O)NC(C)C
EC50: > 200 µM
IC50: > 200 µM

COC(=O)C1=NC(=N)N=C(C(=O)OC)C12C(=O)Cc1ccccc12 (centres undefined)
EC50: 339 µM
IC50: 398 µM

CCOC(=O)N1C2c3ccccc3C(c3ccccc32)N1C(=O)OCC
EC50: > 56.2 µM
IC50: > 56.2 µM

CCOC(=O)CN1CCSC1=NC#N
outcome: inactive

N#CCCN(CCCN(CCCN(C(=O)Nc1ccccc1)c1ccccc1)C(=O)Nc1ccccc1)C(=O)Nc1ccccc1
EC50: > 200 µM
IC50: 87.1 µM

Cc1c(C)c2c(c(N)c1C#N)C(=O)N(NC(=S)Nc1ccccc1)C2=O
EC50: > 200 µM
IC50: 158 µM

O=c1[nH]c2cnn(-c3ccccc3)c2c(=O)n1O
EC50: > 200 µM
IC50: 21.4 µM

O=C(CCc1ccccc1)ON1C(=S)NC(c2ccccc2)(c2ccccc2)C1=S
EC50: > 200 µM
IC50: 33.1 µM

COC1/C=C\OC2(C)Oc3c(C)c(O)c4c(O)c(c(/C=N\OCCCc5ccccc5)c(O)c4c3C2=O)NC(=O)/C(C)=C\C=C/C(C)C(O)C(C)C(O)C(C)C(OC(C)=O)C1C (centres undefined)
EC50: > 200 µM
IC50: 6.61 µM

Cc1nc2c(c(=O)[nH]1)C1CCCCCCCN1C(=S)N2C (centres undefined)
EC50: > 200 µM
IC50: 132 µM

Nc1nc2c(ncn2C2OC(CO)CC2F)c(=O)[nH]1 (centres undefined)
outcome: active

Cc1cc(=O)[nH]c(-n2[nH]c3c(c2=O)CCCC3)n1
EC50: > 200 µM
IC50: 24.5 µM

CC1(C)CCCC(C)(C2CCC3(C)C2C(O)CC2C4(C)CCC(O)C(C)(C)C4C(O)CC23C)O1 (centres undefined)
outcome: inactive

COC(=O)[C@H](C)N1C(=O)N[C@@H](C(C)C)C1=O
EC50: 0.617 µM
IC50: > 200 µM

COc1cccc(NC(=S)/C(=C(\[O-])c2ccc([N+](=O)[O-])cc2)[n+]2ccc(C(C)C)cc2)c1
EC50: > 200 µM
IC50: > 200 µM

COc1cc(C(=O)Oc2c(C#N)sc3c2c(=O)n(-c2ccccc2)c(=S)n3-c2ccccc2)cc(OC)c1OC
EC50: > 200 µM
IC50: 0.617 µM

CC1=NN(C(=O)c2ccc(Cl)cc2)C(=O)/C1=C/c1ccco1
EC50: > 22.9 µM
IC50: > 22.9 µM

CCOC(=O)Cc1nc2sc3c(c2c(=O)[nH]1)CCCC3
EC50: > 324 µM
IC50: > 324 µM

O=C(O)c1cc2c(cc1CC(Cc1ccc3c(c1)CCCC3)C(=O)O)CCCC2 (centres undefined)
EC50: > 200 µM
IC50: 51.3 µM

CN=C(Nn1cnnc1)OC
EC50: > 200 µM
IC50: > 200 µM

CC(=O)N(C(C)=O)C1=C2c3ccccc3N(S(=O)(=O)c3ccccc3)C2n2c(=O)n(-c3ccccc3)c(=O)n2C1 (centres undefined)
EC50: > 9.33 µM
IC50: > 9.33 µM

O=C1C=C(c2[nH]c3ccccc3c2C2=CC(=O)c3ccccc3C2=O)C(=O)c2ccccc21
outcome: inactive

Cc1ccc(NC(=O)C(=O)CC(=O)c2c(C)n([O-])c3ccccc3[n+]2=O)cc1C
EC50: > 64.6 µM
IC50: > 64.6 µM

CCOc1ccc(N=Nc2ccc(/C=C/c3ccc(N=Nc4ccc(OCC)cc4)cc3S(=O)(=O)O)c(S(=O)(=O)O)c2)cc1
EC50: 30.2 µM
IC50: > 200 µM and 195 µM

C/C(=N\NC(N)=S)c1cn(C2OC(CO)C(O)C2O)c(=O)[nH]c1=O (centres undefined)
outcome: inactive

COC(=O)c1c(O)c(C#N)c2[nH]c3ccccc3n2c1=O
EC50: > 100 µM
IC50: > 100 µM

CC(=O)OC1C=CC(SC23CC4CC(CC(C4)C2)C3)N(C(C)=O)C1SC12CC3CC(CC(C3)C1)C2 (centres undefined)
EC50: > 200 µM
IC50: > 200 µM

C=C1CN(S(=O)(=O)c2ccc(C)cc2)CCN(Cc2ccccc2)CCN(S(=O)(=O)c2ccc(C)cc2)C1
EC50: > 200 µM
IC50: > 200 µM

CC(=O)NC(CCSSCCC(NC(C)=O)C(=O)ON1C(=O)CCC1=O)C(=O)ON1C(=O)CCC1=O (centres undefined)
EC50: > 200 µM
IC50: > 200 µM

CCC1(c2ccc3ccccc3c2)Oc2ccccc2-n2cccc2C1=O (centres undefined)
EC50: 1.17 µM
IC50: 91.2 µM
